Assay results as given in patent publication US9556155B2, “Methods of treating fatty liver disease” (Genzyme Corporation, priority 2006, dated 2017).

Tests used:
Assay type in all cases: in vivo
[1] = system: ob/ob mice; experiment: Liver weight and body weight in ob/ob mice
Experimental: FIG. 6 is a graph comparing the liver weight to body weight ratios of ob/ob mice treated with water, ob/ob mice treated with Formula X, and lean mice treated with water after 6 weeks of treatment.
Male ob/ob mice were obtained from the Jackson Laboratories (Bar Harbor, Me.). These mice, being deficient in leptin, are hyperphagic and rapidly become obese. Severe hepatic steatosis is a characteristic of this model. Beginning at 7 weeks of age the mice were treated with Formula X by daily oral gavage (dosed 2× per day at 60 mg/kg/dose or 120 mg/kg/day). […] After 6 weeks of treatment, the animals were sacrificed and the livers dissected and weighed. In the placebo treated ob/ob mice, the liver weight to body weight ratio was higher than in lean animals (FIG. 6). […] N=6-8 mice per group.

[2] = system: hepatic genes involved in lipogenesis, gluconeogenesis, inflammation, and fibrosis; experiment: Quantitative RT-PCR of hepatic genes in ob/ob mice; settings: 120 mg/kg/day oral gavage, 6 weeks, vs placebo
Source text: FIGS. 7A-G are a series of graphs comparing the expression of hepatic genes involved in lipogenesis, gluconeogenesis, inflammation, and fibrosis in ob/ob mice treated with water, ob/ob mice treated with Formula X, and lean mice treated with water after 6 weeks of treatment. In FIG. 7A, lower levels of sterol regulatory element binding protein 1c (SREBP-1c) RNA are observed in the drug-treated versus placebo-treated control animals. In FIG. 7B, lower levels of acid citrate lyase 1 (ACL1) are observed in the drug-treated versus placebo-treated control animals. In FIG. 7C, lower levels of acetyl coenzyme A carboxylase 1 (ACC1) are observed in the drug-treated versus placebo-treated control animals. In FIG. 7D, lower levels of fatty acid synthase (FAS) are observed in the drug-treated versus placebo-treated control animals. In FIG. 7E, lower levels of tumor necrosis factor 1 alpha (TNF-α) are observed in the drug-treated versus placebo-treated control animals. In FIG. 7F, lower levels of glucose 6-phosphatase (G6P) are observed in the drug-treated versus placebo-treated control animals. In FIG. 7G, lower levels of procollagen type 1 (collagen) are observed in the drug-treated versus placebo-treated control animals. Thus, treatment with Formula X reduced the expression of genes involved in lipogenesis (SREBP-1c, ACL1, ACC1, FAS), gluconeogenesis (G6P), inflammation (TNF-α), and fibrosis.
The ob/ob mice, beginning at 7 weeks of age, were treated with Formula X by daily oral gavage (dosed 2× per day at 60 mg/kg/dose, or 120 mg/kg/day) for 6 weeks. The mice were sacrificed and total RNA was purified from the livers for quantitative RT-PCR (FIG. 7) of sterol regulatory element binding protein 1c (SREBP-1c), acid citrate lyase 1 (ACL1), acetyl coenzyme A carboxylase 1 (ACC1), fatty acid synthase (FAS), tumor necrosis factor 1 alpha (TNF-α), glucose 6-phosphatase (G6P), and procollagen type 1 (collagen).

[3] = system: diet-induced obese (DIO) C57BL/6 mice; experiment: Hepatic steatosis in DIO mice, hematoxylin and eosin stained liver sections; settings: 125 mg/kg daily oral gavage, 10 weeks, vs water control
Experimental: FIGS. 2A-2C are a series of photographs comparing hematoxylin and eosin stained liver sections of (A) diet-induced obese (DIO) C57BL/6 mice treated with water (control), (B) DIO mice treated with D-threo-1-(3′,4′-ethylenedioxy)phenyl-2-octanoylamino-3-pyrrolidino-1-propanol (Formula XI), and (C) lean mice treated with water (control). Mice were treated by daily oral gavage for 10 weeks and then sacrificed. In FIG. 1A, large vacuoles are visible throughout the parenchyma of the livers from the water-treated control mice. […] In FIG. 1C, the livers of normal, lean mice are devoid of any lipid-filled vacuoles.
Diet-induced obese (DIO) mice were first generated by placing C57BL/6 mice on a high-fat (45% of kcal) diet (D12451, Research Diets, Inc., New Brunswick, N.J.) for 8 weeks. Obese mice that had elevated glucose and insulin levels were selected and then treated with Formula XI by daily oral gavage (125 mg/kg) or with water as a control. After 10 weeks of treatment, the livers were harvested, sectioned, and stained with hematoxylin and eosin. Large vacuoles were visible throughout the parenchyma of the livers from the water control mice (FIGS. 2A-2C). These vacuoles contain neutral lipid by Oil Red O staining of the liver sections.

[4] = system: DIO mice; experiment: Liver triglyceride levels in DIO mice (hepatic lipid extracts); settings: 75 or 125 mg/kg daily oral gavage, 16 weeks, vs water control
Experimental: FIG. 3 is a graph comparing the mean levels of liver triglycerides in DIO mice treated with water, DIO mice treated with 75 mg/kg Formula XI, DIO mice treated with 125 mg/kg Formula XI, and lean mice treated with water. Mice were treated by daily oral gavage for 16 weeks and then euthanized. The livers were harvested and homogenized. Triglyceride levels were measured in hepatic lipid extracts.
DIO mice were generated as described in Example 1 and then treated with Formula XI by daily oral gavage at a dose of 75 or 125 mg/kg. Mice gavaged with water served as the control. After 16 weeks of treatment the livers were harvested and homogenized. The lipids were extracted with methanol:chloroform (4.3:3 v/v) and CaCI2. The extracted lipids were dried and dissolved in dimethylsulfoxide (DMSO). Triglycerides were measured using the Serum Triglyceride Determination kit (Sigma-Aldrich, St. Louis, Mo.) according to the protocol supplied by the manufacturer.

[5] = system: DIO mice; experiment: Liver weight and body weight in DIO mice
Experimental: FIG. 4 is a graph comparing the liver weight to body weight ratios of DIO mice treated with water, DIO mice treated with Formula XI, and lean mice treated with water after 9 and 17 weeks of treatment.
DIO mice were generated as described in Example 1. Mice were maintained on the high-fat diet for an additional 23 weeks (total time on diet 31 weeks). The mice were then treated with Formula XI by daily oral gavage (125 mg/kg/day). […] After 9 and 17 weeks of treatment, groups of animals were sacrificed and the livers dissected and weighed. In the DIO mice, the liver weight to body weight ratio was higher than in lean animals.

[6] = system: DIO mice; experiment: Markers of liver toxicity in blood of DIO mice; settings: 125 mg/kg/day oral gavage, 9 weeks, vs placebo
Source text: FIGS. 5A-5D are a series of graphs comparing the levels of liver enzymes in DIO mice treated with water and DIO mice treated with Formula XI for 9 weeks. In FIG. 1A, lower levels of alanine aminotransferase (ALT) are observed in the drug-treated versus placebo-treated control animals. In FIG. 1B, lower levels of aspartate aminotransferase (AST) are observed in the drug-treated versus placebo-treated control animals. In FIG. 1C, lower levels of alkaline phosphatase are observed in the drug-treated versus placebo-treated control animals. In FIG. 1D, lower levels of γ-glutamyltransferase (GGT) are observed in the drug-treated versus placebo-treated control animals.
DIO mice were generated as described in Example 1. Mice were maintained on the high-fat diet for an additional 23 weeks (total time on diet 31 weeks). The mice were then treated with Formula XI by daily oral gavage (125 mg/kg/day). Blood was collected after 9 weeks of treatment and markers of liver toxicity were analyzed (IDEXX Laboratories, West Sacramento, Calif.). Lower levels of alanine aminotransferase (ALT), aspartate aminotransferase (AST), alkaline phosphatase, and gamma-glutamyltransferase (GGT) were found in the drug-treated versus placebo-treated control animals (FIGS. 5A-5D).

| SMILES | liver weights ([1]; 120 mg/kg/day oral gavage, 6 weeks) | liver weight to body weight ratio ([1]; 6 weeks of treatment, vs water) | acetyl coenzyme A carboxylase 1 (ACC1) expression in liver [2] | acid citrate lyase 1 (ACL1) expression in liver [2] | fatty acid synthase (FAS) expression in liver [2] | glucose 6-phosphatase (G6P) expression in liver [2] | procollagen type 1 (collagen) expression in liver [2] | sterol regulatory element binding protein 1c (SREBP-1c) RNA level in liver [2] | tumor necrosis factor 1 alpha (TNF-α) expression in liver [2] | size of liver vacuoles [3] | vacuoles visible in the livers (neutral lipid) [3] | total triglyceride levels in the liver [4] | liver weights ([5]; 125 mg/kg/day oral gavage, 9 and 17 weeks) | liver/body weight ratio ([5]; 125 mg/kg/day oral gavage, after 17 weeks, vs lean group) | liver weight to body weight ratio ([5]; 9 and 17 weeks of treatment, vs water) | alanine aminotransferase (ALT) level [6] | alkaline phosphatase level [6] | aspartate aminotransferase (AST) level [6] | gamma-glutamyltransferase (GGT) level [6] |
| --- | --- | --- | --- | --- | --- | --- | --- | --- | --- | --- | --- | --- | --- | --- | --- | --- | --- | --- | --- |
| CCCCCCCCC(=O)NC(CN1CCCC1)C(O)c1ccc2c(c1)OCCO2 (stereo not shown) [Formula X, 1-(1,4-benzodioxan-6-yl)-2-nonanoylamino-3-pyrrolidino-1-propanol] | significantly reduced | reduction | lower levels | lower levels | lower levels | lower levels | lower levels | lower levels | lower levels |  |  |  |  |  |  |  |  |  |  |
| CCCCCCCC(=O)NC(CN1CCCC1)C(O)c1ccc2c(c1)OCCO2 (stereo not shown) [Formula XI, 1-(1,4-benzodioxan-6-yl)-2-octanoylamino-3-pyrrolidino-1-propanol] |  |  |  |  |  |  |  |  |  | appreciably smaller | significantly fewer vacuoles | dose-dependent reduction | significantly reduced | comparable to that of the lean group | reduction | Lower levels | Lower levels | Lower levels | Lower levels |
